This note sets out measurements from patent US6207393A, “Inhibition of intracellular signal transduction by 14-3-3-binding peptides” (Washington University, priority 1999, dated 2001).

Assay [1] addresses T1, 14-3-3 zeta (Homo sapiens, UniProt P63104).
T1 construct: made in house; host or cells: E. coli DH5α (vector pGEX-KT)
T1 sequence (P63104 1-245): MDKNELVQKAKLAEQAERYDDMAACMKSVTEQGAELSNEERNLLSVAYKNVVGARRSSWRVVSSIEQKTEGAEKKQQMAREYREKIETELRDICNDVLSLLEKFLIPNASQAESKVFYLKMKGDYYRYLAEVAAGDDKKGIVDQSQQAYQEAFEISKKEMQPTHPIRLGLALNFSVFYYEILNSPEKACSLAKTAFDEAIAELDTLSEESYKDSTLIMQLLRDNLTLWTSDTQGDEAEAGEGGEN
Kind of assay: SPR competitive inhibition of 14-3-3 zeta binding to chip-coupled phosphorylated Raf-259 peptide. Particulars: 14-3-3 zeta 0.5-1.0 μM; competitor 1-50 μM; relative affinity only. As to the method:
(§1) The ability of each peptide to inhibit binding of 14-3-3 zeta to the phosphorylated peptide was then tested in a range of concentrations between 1 and 50 μM. 14-3-3 zeta was prepared according to the methods in Example 1 and binding affinities and specificities were determined using the peptides in Table 2. The 14-3-3 zeta fusion proteins (0.5-1.0 μM) were pre-incubated with a given peptide at concentrations between 1 μM and 50 μM. 14-3-3 zeta was then infused across a sensor chip surface which had been previously coupled with the phosphorylated Raf-259 peptide (SEQ ID NO: 4). IC50 values were determined by plotting the concentration of competitor peptide required to achieve a 50% reduction in equilibrium binding.

For a further assay, the target named is T2, 14-3-3 eta (Homo sapiens, UniProt Q04917).
T2 construct: made in house; host or cells: E. coli DH5α (vector pGEX-KT)
T2 sequence (Q04917 1-246): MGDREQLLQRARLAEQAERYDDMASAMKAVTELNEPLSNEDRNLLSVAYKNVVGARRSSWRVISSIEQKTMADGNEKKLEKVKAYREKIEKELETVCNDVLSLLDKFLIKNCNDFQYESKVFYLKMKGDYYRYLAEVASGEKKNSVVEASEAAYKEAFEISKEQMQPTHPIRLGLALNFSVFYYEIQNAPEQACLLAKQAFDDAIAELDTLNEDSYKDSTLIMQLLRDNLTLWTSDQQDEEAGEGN
In words: SPR competitive inhibition of 14-3-3 eta binding to phosphorylated Raf-259 peptide. Particulars: isoform eta. The method, then: as §1
(§2) There are seven known isoforms of 14-3-3 which form homo- and heterodimers in vivo. If different isoforms of 14-3-3 could bind to proteins with distinct specificities, heterodimeric forms of 14-3-3 might function as modular linker proteins, bringing together different proteins into a single complex. We were, therefore, interested in determining whether different 14-3-3 isoforms recognize phosphoserine in a sequence specific fashion. This hypothesis was tested by expressing and purifying three other 14-3-3 isoforms, eta, beta and tau, and measuring their affinity towards the panel of phosphorylated peptides generated above. Using the Surface Plasmon Resonance method, the "on" and "off" rates for 14-3-3 binding to the phosphorylated Raf-259 peptide were calculated (Table 6).
(§3) Competitive inhibition with the mutated phosphorylated Raf-1 peptides was used to determine whether their specificities were similar (Table 7). In each case, the calculated IC50 s were very similar to those calculated for 14-3-3 zeta.

For a further assay, the target named is T3, 14-3-3 beta (Homo sapiens, UniProt P31946).
T3 construct: made in house; host or cells: E. coli DH5α (vector pGEX-KT)
T3 sequence (P31946 1-246): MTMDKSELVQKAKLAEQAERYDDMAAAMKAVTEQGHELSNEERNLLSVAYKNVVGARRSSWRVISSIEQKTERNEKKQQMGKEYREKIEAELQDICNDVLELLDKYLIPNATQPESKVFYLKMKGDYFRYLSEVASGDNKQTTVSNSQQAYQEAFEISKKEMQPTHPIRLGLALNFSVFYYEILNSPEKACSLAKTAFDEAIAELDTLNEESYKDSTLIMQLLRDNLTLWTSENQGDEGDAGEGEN
In words: SPR competitive inhibition of 14-3-3 beta binding to phosphorylated Raf-259 peptide. Particulars: isoform beta. As to the method: as §1, §2, §3

The target of a further assay is T4, 14-3-3 tau (Homo sapiens, UniProt P27348).
T4 construct: made in house; host or cells: E. coli DH5α (vector pGEX-KT)
T4 sequence (P27348 1-245): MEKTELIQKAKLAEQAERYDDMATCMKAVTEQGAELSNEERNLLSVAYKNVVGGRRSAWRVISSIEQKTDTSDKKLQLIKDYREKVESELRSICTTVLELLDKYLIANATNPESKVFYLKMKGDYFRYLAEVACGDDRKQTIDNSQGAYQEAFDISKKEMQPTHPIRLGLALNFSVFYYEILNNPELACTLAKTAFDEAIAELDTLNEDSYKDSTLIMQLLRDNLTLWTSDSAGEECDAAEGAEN
In words: SPR competitive inhibition of 14-3-3 tau binding to phosphorylated Raf-259 peptide. Particulars: isoform tau. The method, then: as §1, §2, §3

Assay [2] has as its target T1, 14-3-3 zeta. Kind of assay: Surface plasmon resonance, GST-14-3-3 zeta binding to immobilized biotinylated Raf-259 peptide (binding and kinetics). Particulars: 14-3-3 zeta. As to the method:
These experiments were performed using the BIAcore 2000 (Pharmacia). The basic principles and detection methods have been reviewed previously (Jonsson et al. Biotech. 11:620-7, 1991; Jonsson et al. Ann Bio Clin 51:19-26, 1993 which are incorporated by reference). In brief, 5 μl of the biotinylated raf-259 peptide (1 nM) was immobilized onto streptavidin-coated (SA5, Pharmacia) sensor chips at a flow rate of 5 μl/min at 25° C. […] To phosphorylate the immobilized peptides, 5 U of PKA in a buffer containing 200 μM ATP in 50 μl was infused over the chip at a flow rate of 2 μl/min at 30° C.
Because the surface plasmon resonance detects binding in real time, this method can be used to directly determine the rates of association (kon) and dissociation (koff). For these kinetic measurements, GST/14-3-3 fusion proteins were injected over a range of concentrations between 200 nM and 5 μM. The "on" rate, kon, was determined by calculating dR/dt for the initial linear portion of association using the Biaevaluation software (Pharmacia). Because ligand rebinding to the sensor chip can affect the "off" rate (koff, Panayotou et al. Mol Cell Biol 13:3567-76, 1993 which is incorporated by reference), we measured the "off" rate in the presence of 50 μM free ligand by using the coinject function of the Biacore. The "off" rate measured in the absence of 50 μM free ligand was approximately 10-fold lower.
The biotinylated, […] Raf-1 peptide (SEQ ID NO: 4) was coupled to avidin coated chip surface to study the kinetics of its binding to 14-3-3 zeta. The association rate was determined to be approximately 2.3×10^4 M^-1×s^-1 and the dissociation rate was determined to be approximately 2.8×10^-3 s^-1. To minimize the effects of protein rebinding to the surface of the sensor chip, the dissociation rate was measured in the presence of 50 μM free phosphorylated Raf-1 peptide.
For orientation: SPR reads the build-up and loss of mass on a sensor chip optically.

Several values for one entry are separate records, joined by “and”; a condition that tells them apart may be missing. Identical values can stand only once. Where a SMILES comes first, the peptide text is derived from it. Where no end group is shown, it is not given here. [ ]: non-standard residue; d: D form. pS = N[C@@H](COP(=O)(O)O)C(=O)O

The term IC50 denotes the concentration that inhibits the measured activity by half. `CC(C)C[C@H](N)C(=O)N[C@@H](CO)C(=O)N[C@@H](CCC(N)=O)C(=O)N[C@@H](C)C(=O)N[C@@H](CCC(N)=O)C(=O)N[C@@H](C)C(=O)N[C@@H](CO)C(=O)N[C@H](C(=O)N[C@@H](COP(=O)(O)O)C(=O)N[C@H](C(=O)N1CCC[C@H]1C(=O)N[C@@H](CC(N)=O)C(=O)N[C@H](C(=O)N[C@@H](Cc1c[nH]cn1)C(=O)N[C@@H](C)C(=O)O)C(C)C)[C@@H](C)O)[C@@H](C)O` [254/256RA] (H-LSQAQAST[pS]TPNVHA-OH): the IC50 on 14-3-3 zeta [1], at 14-3-3 eta, on 14-3-3 beta and at 14-3-3 tau was > 50 µM in each case.
`CC(C)C[C@H](N)C(=O)N[C@@H](CO)C(=O)N[C@@H](CCC(N)=O)C(=O)N[C@@H](C)C(=O)N[C@@H](CCCNC(=N)N)C(=O)N[C@@H](CCC(N)=O)C(=O)N[C@@H](CO)C(=O)N[C@H](C(=O)N[C@@H](COP(=O)(O)O)C(=O)N[C@H](C(=O)N1CCC[C@H]1C(=O)N[C@@H](CC(N)=O)C(=O)N[C@H](C(=O)N[C@@H](Cc1c[nH]cn1)C(=O)N[C@@H](C)C(=O)O)C(C)C)[C@@H](C)O)[C@@H](C)O` [Peptide R-4] (H-LSQARQST[pS]TPNVHA-OH) had an IC50 on 14-3-3 zeta [1] of 11 µM.
In the case of `CSCC[C@H](NC(=O)[C@H](Cc1c[nH]cn1)NC(=O)[C@@H](NC(=O)[C@H](CC(N)=O)NC(=O)[C@H](C)NC(=O)[C@@H](NC(=O)[C@H](COP(=O)(O)O)NC(=O)[C@@H](NC(=O)[C@H](CO)NC(=O)[C@H](CCCNC(=N)N)NC(=O)[C@H](CCC(N)=O)NC(=O)[C@H](CCCNC(=N)N)NC(=O)[C@H](CCC(N)=O)NC(=O)[C@H](CO)NC(=O)[C@@H](N)CC(C)C)[C@@H](C)O)[C@@H](C)O)C(C)C)C(=O)O` [PA] (H-LSQRQRST[pS]TANVHM-OH), the IC50 on 14-3-3 zeta [1] is ~25 µM and 25 µM; at 14-3-3 eta, 20 µM; at 14-3-3 beta, 24 µM; on 14-3-3 tau, 27 µM.
`CC(C)C[C@H](N)C(=O)N[C@@H](CO)C(=O)N[C@@H](CCC(N)=O)C(=O)N[C@@H](C)C(=O)N[C@@H](CCC(N)=O)C(=O)N[C@@H](CO)C(=O)N[C@@H](CCCNC(=N)N)C(=O)N[C@H](C(=O)N[C@@H](COP(=O)(O)O)C(=O)N[C@H](C(=O)N1CCC[C@H]1C(=O)N[C@@H](CC(N)=O)C(=O)N[C@H](C(=O)N[C@@H](Cc1c[nH]cn1)C(=O)N[C@@H](C)C(=O)O)C(C)C)[C@@H](C)O)[C@@H](C)O` [Peptide R-2] (H-LSQAQSRT[pS]TPNVHA-OH): on 14-3-3 zeta [1], the IC50 was > 50 µM.
On to “LSQRQRSTSTPNVHM [Raf-259, LSQRQRSTSTPNVHM, reference compound]”, for which, at 14-3-3 zeta [2] (KD = koff/kon, read-out: apparent KD measured by SPR), the Kd was ~0.122 µM. Moreover, the koff at 14-3-3 zeta [2] (in the presence of 50 μM free phosphorylated Raf-1 peptide, read-out: dissociation rate) was ~0.0028 s⁻¹. The kon on 14-3-3 zeta [2] (read-out: association rate) is ~23000 M⁻¹ s⁻¹.
`CC(C)C[C@H](N)C(=O)N[C@@H](CO)C(=O)N[C@@H](CCC(N)=O)C(=O)N[C@@H](CCCNC(=N)N)C(=O)N[C@@H](CCC(N)=O)C(=O)N[C@@H](CCCNC(=N)N)C(=O)N[C@@H](COP(=O)(O)O)C(=O)N[C@H](C(=O)N[C@@H](CO)C(=O)N[C@H](C(=O)N1CCC[C@H]1C(=O)N[C@@H](CC(N)=O)C(=O)N[C@H](C(=O)N[C@@H](Cc1c[nH]cn1)C(=O)N[C@@H](C)C(=O)O)C(C)C)[C@@H](C)O)[C@@H](C)O` [pS-Raf-257] (H-LSQRQR[pS]TSTPNVHA-OH): the IC50 at 14-3-3 zeta [1], at 14-3-3 eta, at 14-3-3 beta and on 14-3-3 tau was > 50 µM throughout.
Consider `CC(C)C[C@H](N)C(=O)N[C@@H](CO)C(=O)N[C@@H](CCC(N)=O)C(=O)N[C@@H](CCCNC(=N)N)C(=O)N[C@@H](CCC(N)=O)C(=O)N[C@@H](CCCNC(=N)N)C(=O)N[C@@H](COP(=O)(O)O)C(=O)N[C@H](C(=O)N[C@@H](COP(=O)(O)O)C(=O)N[C@H](C(=O)N1CCC[C@H]1C(=O)N[C@@H](CC(N)=O)C(=O)N[C@H](C(=O)N[C@@H](Cc1c[nH]cn1)C(=O)N[C@@H](C)C(=O)O)C(C)C)[C@@H](C)O)[C@@H](C)O` [pS-Raf-257,259] (H-LSQRQR[pS]T[pS]TPNVHA-OH), for which the IC50 on 14-3-3 zeta [1], on 14-3-3 eta, on 14-3-3 beta and on 14-3-3 tau was > 50 µM each time.
Turning to `CC(C)C[C@H](N)C(=O)N[C@@H](CO)C(=O)N[C@@H](CCC(N)=O)C(=O)N[C@@H](C)C(=O)N[C@@H](CCC(N)=O)C(=O)N[C@@H](CCCNC(=N)N)C(=O)N[C@@H](CO)C(=O)N[C@H](C(=O)N[C@@H](COP(=O)(O)O)C(=O)N[C@H](C(=O)N1CCC[C@H]1C(=O)N[C@@H](CC(N)=O)C(=O)N[C@H](C(=O)N[C@@H](Cc1c[nH]cn1)C(=O)N[C@@H](C)C(=O)O)C(C)C)[C@@H](C)O)[C@@H](C)O` [Peptide 254RA] (H-LSQAQRST[pS]TPNVHA-OH), the IC50 at 14-3-3 zeta [1] is 9 µM.
Same read-out and setting: the figure for `CC(C)C[C@H](N)C(=O)N[C@@H](CO)C(=O)N[C@@H](CCC(N)=O)C(=O)N[C@@H](CCCNC(=N)N)C(=O)N[C@@H](CCC(N)=O)C(=O)N[C@@H](C)C(=O)N[C@@H](CO)C(=O)N[C@H](C(=O)N[C@@H](COP(=O)(O)O)C(=O)N[C@H](C(=O)N1CCC[C@H]1C(=O)N[C@@H](CC(N)=O)C(=O)N[C@H](C(=O)N[C@@H](Cc1c[nH]cn1)C(=O)N[C@@H](C)C(=O)O)C(C)C)[C@@H](C)O)[C@@H](C)O` [Peptide 256RA] (H-LSQRQAST[pS]TPNVHA-OH) is 19 µM.
